Data taken from paper PMC5003509 (Journal of Medicinal Chemistry, 2015).

Tests used:
[1] = In vivo pharmacokinetics in CD1 mice; conditions: male, CD1, mouse, plasma, iv, 10 mg/kg
[2] = Metabolic stability in mouse liver microsomes, glucuronidation; assay type: in vitro ADME; conditions: in the presence of UDPGA
[3] = Metabolic stability in mouse liver microsomes, CYP-mediated; assay type: in vitro ADME; conditions: cofactor for CYP-dependent oxidation
[4] = test system: glycine receptor (strychnine sensitive); test: Glycine receptor; assay type: binding; conditions: at 10 μM
[5] = target: hERG channel (Homo sapiens, UniProt Q12809); test: hERG channel assay; conditions: concentrations up to 25 μM
Chain of hERG channel (Q12809 whole entry): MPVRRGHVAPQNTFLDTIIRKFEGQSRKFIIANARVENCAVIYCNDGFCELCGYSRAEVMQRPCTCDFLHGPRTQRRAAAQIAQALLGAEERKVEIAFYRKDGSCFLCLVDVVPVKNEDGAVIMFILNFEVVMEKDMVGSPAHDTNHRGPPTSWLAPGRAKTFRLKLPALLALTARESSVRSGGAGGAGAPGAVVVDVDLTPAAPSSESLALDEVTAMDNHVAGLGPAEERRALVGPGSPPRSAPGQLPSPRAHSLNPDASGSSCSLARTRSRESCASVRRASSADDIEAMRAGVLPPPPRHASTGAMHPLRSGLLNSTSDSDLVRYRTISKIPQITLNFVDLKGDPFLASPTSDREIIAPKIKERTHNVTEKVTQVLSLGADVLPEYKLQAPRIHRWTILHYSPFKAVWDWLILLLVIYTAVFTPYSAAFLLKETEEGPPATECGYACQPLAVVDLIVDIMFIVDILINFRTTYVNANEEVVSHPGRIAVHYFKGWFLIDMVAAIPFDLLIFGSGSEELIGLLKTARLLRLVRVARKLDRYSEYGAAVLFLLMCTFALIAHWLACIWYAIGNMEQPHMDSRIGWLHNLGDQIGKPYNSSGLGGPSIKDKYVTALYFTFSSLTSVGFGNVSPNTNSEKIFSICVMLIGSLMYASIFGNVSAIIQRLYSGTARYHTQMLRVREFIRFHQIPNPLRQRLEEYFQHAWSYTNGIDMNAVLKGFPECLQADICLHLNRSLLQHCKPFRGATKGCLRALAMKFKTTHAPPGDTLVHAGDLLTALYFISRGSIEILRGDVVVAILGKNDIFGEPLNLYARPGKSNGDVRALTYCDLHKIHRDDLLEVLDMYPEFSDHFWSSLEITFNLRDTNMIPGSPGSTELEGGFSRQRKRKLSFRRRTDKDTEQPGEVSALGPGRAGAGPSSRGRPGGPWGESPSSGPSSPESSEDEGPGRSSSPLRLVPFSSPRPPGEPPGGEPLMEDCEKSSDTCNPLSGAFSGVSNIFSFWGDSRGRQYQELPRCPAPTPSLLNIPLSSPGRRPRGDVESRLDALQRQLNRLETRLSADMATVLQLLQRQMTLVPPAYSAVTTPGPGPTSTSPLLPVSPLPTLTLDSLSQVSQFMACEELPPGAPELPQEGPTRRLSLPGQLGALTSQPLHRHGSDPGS

[6] = target: recombinant human DAAO (Homo sapiens, UniProt P14920); test: In vitro DAAO assay; assay type: biochemical
Chain of recombinant human DAAO (P14920 whole entry): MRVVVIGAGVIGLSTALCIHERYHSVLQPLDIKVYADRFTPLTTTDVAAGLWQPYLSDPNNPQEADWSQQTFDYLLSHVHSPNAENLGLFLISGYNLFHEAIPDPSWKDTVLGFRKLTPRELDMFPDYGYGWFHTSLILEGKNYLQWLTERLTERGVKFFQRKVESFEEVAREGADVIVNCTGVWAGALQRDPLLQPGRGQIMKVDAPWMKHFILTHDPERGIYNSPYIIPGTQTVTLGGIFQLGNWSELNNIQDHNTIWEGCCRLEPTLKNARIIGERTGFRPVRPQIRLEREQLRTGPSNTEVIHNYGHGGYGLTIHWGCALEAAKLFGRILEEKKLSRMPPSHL

[7] = test system: NMDA receptor (MK801); test: NMDA receptor; assay type: binding; conditions: at 10 μM
[8] = test system: NMDA receptor (phencyclidine); test: NMDA receptor; assay type: binding; conditions: at 10 μM
[9] = test system: Salmonella typhimurium strain (TA100); test: Ames test; assay type: cell-based; conditions: TA100, in the presence or absence of metabolic activation by S9 mixture
[10] = Effect on plasma pharmacokinetics of oral D-serine in mice; conditions: 11h (30 mg/kg, po) with D-serine (30 mg/kg, po)
[11] = test system: NMDA receptor (agonist); test: NMDA receptor; assay type: binding; conditions: at 10 μM

O=c1[nH]nc(CCc2cc(F)cc(F)c2)cc1O [8b, reference compound]
AUC(0-t) [1]: 12700 ng·h/mL | glucuronidation in mouse liver microsomes [2]: some resistance to glucuronidation

O=c1[nH]c(=O)n(CCc2ccccc2)nc1O [11e, 6-Hydroxy-2-phenethyl-1,2,4-triazine-3,5(2H,4H)-dione]
stability in mouse liver microsomes in the presence of NADPH [3]: stable | glucuronidation in mouse liver microsomes [2]: completely resistant to glucuronidation

O=c1[nH]c(=O)n(Cc2cccc3ccccc23)nc1O [11h, 6-Hydroxy-2-(naphthalen-1-ylmethyl)-1,2,4-triazine-3,5(2H,4H)-dione]
inhibition, glycine receptor (strychnine sensitive) [4]: ≤5% inhibition at 10 μM | hERG channel inhibition [5]: no inhibition at concentrations up to 25 μM | effect of FAD concentration on IC50 ([6]; escalation of FAD concentration from 10 to 100 μM): did not affect IC50 value | mode of inhibition ([6]; versus D-serine, double reciprocal plot): competitive inhibition | stability in mouse liver microsomes in the presence of NADPH [3]: stable | inhibition, NMDA receptor (MK801) [7]: ≤5% inhibition at 10 μM | inhibition, NMDA receptor (phencyclidine) [8]: ≤5% inhibition at 10 μM | mutagenicity [9]: No evidence of mutagenicity | effect on plasma clearance of D-serine [10]: substantially reduced | inhibition, NMDA receptor (agonist) [11]: ≤5% inhibition at 10 μM | glucuronidation in mouse liver microsomes [2]: completely resistant to glucuronidation

O=c1cc(CSc2ccc(Cl)c(Cl)c2)occ1O [compound 7, reference compound]
glucuronidation in mouse liver microsomes [2]: extensively glucuronidated

O=c1[nH]c(=S)n(CCc2ccccc2)nc1O [compound 30, 6-Hydroxy-2-phenethyl-3-thioxo-3,4-dihydro-1,2,4-triazin-5(2H)-one]
glucuronidation in mouse liver microsomes [2]: metabolically stable against glucuronidation

O=c1[nH]c(=O)n(CCc2ccccc2)cc1O [compound 32, 5-Hydroxy-1-phenethylpyrimidine-2,4(1H,3H)-dione]
glucuronidation in mouse liver microsomes [2]: fully glucuronidated within 60 min
